Results: patent US11648289B2, “Antibacterial method” (priority 2016, dated 2023)
No end group written: not given here.

Tests used:
[1] = system: Enterococcus. faecalis LMGT 3199
Method: (§1) Bacterial strains, growth conditions, bacteriocins and antimicrobial assays. All the strains (see below) used in minimal inhibitory concentration (MIC) assays (Varahan et al., 2014, M. Bio. 5:e01726-01714) were grown in BHI medium (Oxoid) at 30° C. without shaking. A collection of E. faecium strains isolated from blood in patients from different European hospitals was received from Department of Medical Microbiology, University Medical Center Utrecht, the Netherlands. […] Synthesized peptides were solubilized to concentrations of 10.0-0.1 mg/ml in 0.1% (vol/vol) trifluoroacetic acid and stored at −20° C. until use. […] Bacteriocin activity was determined by microtiter plate assay as previously described (Holo et al., 1991, J. Bacteriol., 173:3879-3887). The MIC was defined as the minimal bacteriocin concentration that inhibited the growth of the indicator strain by at least 50% (50% of the turbidity of the control culture without bacteriocin) in 200 μl culture. CD Spectroscopy Circular dichroism (CD) spectra were recorded using a Jasco J-810 spectropolarimeter (Jasco International Co) calibrated with D-camphor-10-sulfonate (Icatayama Chemical). All measurements were made using a quartz cuvette (Sterna) with 0.1 cm path length. Samples were scanned five times with a scanning rate of 50 nm/min with a bandwidth of 0.5 nm and response time of 1 s over the wavelength range 190-250 nm. Spectra were recorded at different (30 and 50%) trifluoroethanol (TFE) (Aldridge) concentrations at 25° C. The approximate α-helical content of the protein was estimated from its molar ellipticity at 222 nm (Scholtz et al., 1991, Biopolymers 31:1463-1470). NMR Spectroscopy The experiments were run on a sample containing 1.0 mM EntK1, 50% D3-TFE (99.5% D) (Aldrich), Milli-Q water and 0.2 mM of 4,4-dimethyl-4-silapentane-1-sulfonic acid (DSS) (Larodan). 2D NOESY (Jeener et al., 1979, J. Magn. Reson., 71:4546-4553), 2D TOCSY (Braunschweiler and Ernst, 1983, J. Magn. Reson., 53:521-528), 2D DQCOSY, ^15N-HSQC (Davis et al., 1992, J. Magn. Reson., 98:207-216) and ^13C-HSQC (Hurd, 1991, J. Magn. Reson., 91:648-653) were recorded. The data was acquired on a 600 MHz Bruker Avance II spectrometer with four channels and a 5 mm TCI cryoprobe (Bruker Biospin). NOESY spectra with mixing times between 120 ms and 300 ms were obtained for both samples. TOCSY mixing times of 15-80 ms were used. The experiments were run at 298.15 K. Spectra were processed using the Topspin program (Bruker Biospin). 4,4-dimethyl-4-silapentane-1-sulfonic acid (DSS) was used as a chemical shift standard, and ^15N and ^13C data were referenced using frequency ratios as described in (Wishart et al., 1995, J. Biomol. NMR., 6:135-140). For visualization, assignment and integration of the spectra the computer program CARA was used (Keller, 2004, The Computer Aided Resonance Assignment Tutorial. CANTINA Verlag, Goldau, Switzerland). The spectra were assigned using standard methods. Dihedral angle restraints were obtained from the chemical shift values using the program TALOS-N(Shen and Bax, 2013, J. Biomol. NMR, 56:227-241). Nuclear Overhauser effect (NOE) distance restraints were calculated from the peak volumes in the NOESY spectra with NOESY mixing time of 200 ms. All structure calculations were made using the structure calculation program CYANA 2.1 (Guntert et al., 1997, J. Mol. Biol., 273:283-298; Herrmann et al., 2002, J. Mol. Biol., 319:209-227). The annealing macro in CYANA calculated 100 structures. The 20 structures with the lowest energy were kept and analyzed further. The root-mean-square deviation (RMSD) was calculated and the structures were visualized using MolMol (Koradi et al., 1996, J. Mol. Graph., 14:51-55, 29-32). Generation of bacteriocin resistant mutants of E. faecalis and E. faecium.

L. garvieae LMGT 2217 = system: L. garvieae LMGT 2217
Method: as §1

S. epidermidis LMGT 3026 = system: S. epidermidis LMGT 3026
Method: as §1

E. faecalis LMGT 3386 = system: E. faecalis LMGT 3386
Method: as §1

S. aureus LMGT 3266 = system: S. aureus LMGT 3266
Method: as §1

L. lactis LMGT 2095 = system: L. lactis LMGT 2095
Method: as §1

E. faecium LMGT 3193 = system: E. faecium LMGT 3193
Method: as §1

S. aureus LMGT 3289 = system: S. aureus LMGT 3289
Method: as §1

S. aureus LMGT 3272 = system: S. aureus LMGT 3272
Method: as §1

E. faecalis LMGT 3143 = system: E. faecalis LMGT 3143
Method: as §1

[2] = system: S. pneumoniae ds220 non-induced; details: WT rseP
Method: as §1

S. pneumoniae ms1 = details: ms1, rseP H18>A, induced with ComS (2 μM)
Method: as §1

[3] = system: Listeria monocytogenes LMGT 2651
Method: as §1

E. faecalis LMGT 3572 = system: E. faecalis LMGT 3572
Method: as §1

E. faecalis LMGT 3567 = system: E. faecalis LMGT 3567
Method: as §1

E. faecium LMGT 3313 = system: E. faecium LMGT 3313
Method: as §1

E. faecium LMGT 2769 = system: E. faecium LMGT 2769
Method: as §1

B. cercus LMGT 2735 = system: B. cercus LMGT 2735
Method: as §1

E. faecalis LMGT 3330 = system: E. faecalis LMGT 3330
Method: as §1

L. lactis LMGT 2233 = system: L. lactis LMGT 2233
Method: as §1

E. faecalis LMGT 3358 = system: E. faecalis LMGT 3358
Method: as §1

S. pneumoniae ms3 = details: ms3, rseP H22>A, induced with ComS (2 μM)
Method: as §1

Sequence | MIC 50 [1] [µM] | MIC 50 (L. garvieae LMGT 2217) [µM] | MIC 50 (S. epidermidis LMGT 3026) [µM] | MIC 50 (E. faecalis LMGT 3386) [µM] | MIC 50 (S. aureus LMGT 3266) [µM] | MIC 50 (L. lactis LMGT 2095) [µM] | MIC 50 (E. faecium LMGT 3193) [µM] | MIC 50 (S. aureus LMGT 3289) [µM] | MIC 50 (S. aureus LMGT 3272) [µM] | MIC 50 (E. faecalis LMGT 3143) [µM] | MIC [2] [µM] | MIC (S. pneumoniae ms1) [µM] | MIC 50 [3] [µM] | MIC 50 (E. faecalis LMGT 3572) [µM] | MIC 50 (E. faecalis LMGT 3567) [µM] | MIC 50 (E. faecium LMGT 3313) [µM] | MIC 50 (E. faecium LMGT 2769) [µM] | MIC 50 (B. cercus LMGT 2735) [µM] | MIC 50 (E. faecalis LMGT 3330) [µM] | MIC 50 (L. lactis LMGT 2233) [µM] | also measured
MKFKFNPTGTIVKKLTQYEIAWFKNKHGYYPWEIPRC [EntK1] | 5.5 | 0.34 | >5.5 | >5.5 | >5.5 | >5.5 | 0.085 | >5.5 | >5.5 | >5.5 | >5.5 | >5.5 | >5.5 | >5.5 | >5.5 | 0.085 | 0.045 | >5.5 | >5.5 | >5.5 | MIC 50 (E. faecalis LMGT 3358): 2.7 µM; MIC (S. pneumoniae ms3): >5.5 µM
MKTILRFVAGYDIASHKKKTGGYPWERGKA [LsbB, reference compound] | >7 | >7 | >7 | >7 | >7 | >7 | >7 | >7 | >7 | >7 | >7 | >7 | >7 | >7 | >7 | >7 | >7 | >7 | >7 | >7 | MIC 50 (E. faecalis LMGT 3358): >7 µM; MIC (S. pneumoniae ms3): >7 µM
MLAKIKAMIKKFPNPYTLAAKLTTYEINWYKQQYGRYPWERPVA [EntEJ97] | 0.145 | 0.295 | >4.7 | 0.295 | 1.175 | 0.145 | 0.145 | >4.7 | 1.175 | 0.145 | >4.5 | 0.3 | 2.3 | 0.145 | 0.295 | 0.145 | 0.145 | >4.7 | 0.145 | 0.145 | MIC 50 (E. faecalis LMGT 3358): 0.075 µM; MIC (S. pneumoniae ms3): 0.3 µM
